Assay results from patent publication US20080194880A1, “Process For the Preparation of Polymorphs of Mesotrione” (priority 2004, published 2008).

What was measured:
Type in all cases: physicochemical
[1] = Conversion of isolated Form 2 mesotrione to Form 1 in process filtrate with TEA and NaCl; conditions: not seeded
[2] = Conversion of isolated Form 2 mesotrione to Form 1 in water in the presence of xylene at different pH; conditions: xylene:mesotrione 1:5, 21 °C
Source text: This is an example of the conversion of already isolated Form 2 mesotrione to Form 1 mesotrione in the presence of solvent. A 10% solution of Form 2 in water was made at different pH values ranging from 2 to 6. If seeded, a seed concentration of 2% Form 1 relative to the Form 2 mesotrione concentration was used. A 1:5 ratio of xylene to mesotrione was used in these experiments. Actual conversion time may be less than shown.

[3] = Stabilising Form 2 mesotrione in a 0.05% Rhodasurf DA630 solution; conditions: pH 5.5, after 10 days
Procedure: 0.5 g of Form 2 mesotrione crystals were stirred with a 0.05% Rhodasurf DA630 (15 ml) in a reaction flask. A pH probe was placed in the system and the pH was increased to 11.5 by the addition of 0.6 ml of 10% sodium hydroxide solution. The pH of the solution was reduced to 5.5 by the addition of 0.74 g of Form 2 mesotrione. The polymorphic form of the mesotrione was monitored periodically by microscopy and FT-IR.

[4] = Conversion of isolated Form 2 mesotrione to Form 1 in process filtrate
[5] = Polymorphic stability of pure mesotrione in aqueous suspension at pH 1 to 4
Procedure: 1.6 g of the re-crystallised mesotrione crystals were stirred with water (30 ml) in a reaction flask and the pH increased to 12 by the addition of sodium hydroxide. 1.5 ml of 10% hydrochloric acid was added over 15 minutes to reduce the pH of the solution to pH ranges between 1 and 4. The suspension was stirred and the polymorphic form of the crystals was determined as Form 2 by optical microscopy and FT-IR. Below pH 2.5, Form 2 transformed to Form 1 within 1 hour. At pH 3 Form 2 was stable but converted to Form 1 when seeded with Form 1 over four hours.

[6] = Conversion of in-process Form 2 mesotrione slurry from the crystallizer to Form 1; conditions: not seeded
Source text: This is an example of converting in process Form 2 mesotrione to Form 1 mesotrione. Form 2 material was made in the plant via a process upset. […]

CS(=O)(=O)c1ccc(C(=O)C2C(=O)CCCC2=O)c([N+](=O)[O-])c1 [Form 2 mesotrione, 2-(4-methylsulphonyl-2-nitrobenzoyl)cyclohexane-1,3-dione]
Hours to convert ([1]; Example 3A: process filtrate, temp 40, pH 1.8, no meso:TEA or meso:NaCl ratio printed, agitated): 17 h | Hours to convert ([1]; Example 3B: process filtrate, temp 50, pH 2.0, meso:TEA 1:1.3, meso:NaCl 2:1, agitated): 1 h | Hours to convert ([1]; Example 3C: process filtrate, temp 50, pH 2.0, meso:TEA 1:1.3, meso:NaCl 2:1, agitated): 5 h | Hours to convert ([1]; Example 3D: process filtrate, temp 50, pH 1.8, meso:TEA 1:1.3, meso:NaCl 2:1, agitated): 4 h | Dominant Polymorph Form (IR) ([2]; Example 1A: 10% Form 2 in water, 6.3 hr, pH 2.0, seeded 2% Form 1): 1 | Dominant Polymorph Form (IR) ([2]; Example 1B: 10% Form 2 in water, 6.3 hr, pH 2.9, seeded 2% Form 1): 2 | Dominant Polymorph Form (IR) ([2]; Example 1C: 10% Form 2 in water, 6.3 hr, pH 4.1, seeded 2% Form 1): 2 | Dominant Polymorph Form (IR) ([2]; Example 1D: 10% Form 2 in water, 6.3 hr, pH 5.9, seeded 2% Form 1): 2 | Dominant Polymorph Form (IR) ([2]; Example 1E: 10% Form 2 in water, 6.3 hr, pH 2.5, seeded 2% Form 1): 1 | Dominant Polymorph Form (IR) ([2]; Example 1F: 10% Form 2 in water, 6.3 hr, pH 5.1, seeded 2% Form 1): 2 | Dominant Polymorph Form (IR) ([2]; Example 1G: 10% Form 2 in water, 23.3 hr, pH 2.0, seeded 2% Form 1): 1 | Dominant Polymorph Form (IR) ([2]; Example 1H: 10% Form 2 in water, 23.3 hr, pH 2.9, seeded 2% Form 1): 2 | Dominant Polymorph Form (IR) ([2]; Example 1I: 10% Form 2 in water, 23.5 hr, pH 5.9, seeded 2% Form 1): 2 | Dominant Polymorph Form (IR) ([2]; Example 1J: 10% Form 2 in water, 23.5 hr, pH 2.5, seeded 2% Form 1): 1 | Dominant Polymorph Form (IR) ([2]; Example 1K: 10% Form 2 in water, 23.5 hr, pH 2.0, not seeded): 1 | Dominant Polymorph Form (IR) ([2]; Example 1L: 10% Form 2 in water, 22.0 hr, pH 2.0, not seeded): 1 | Dominant Polymorph Form (IR) ([2]; Example 1M: 10% Form 2 in water, 22.0 hr, pH 4.0, not seeded): 2 | Polymorphic form (microscopy and FT-IR) [3]: still predominately Form 2 | Hours to convert ([4]; Example 4A: process filtrate, temp 22, pH 3.6, agitated, seeded, did not convert after 52 hrs): Did not | Hours to convert ([4]; Example 4B: process filtrate, temp 22, pH 3.6, agitated, seeded, did not convert after 48 hrs): Did not | Hours to convert ([4]; Example 4C: process filtrate, temp 30, pH 3.6, agitated, seeded, did not convert after 18 hrs): Did not | Hours to convert ([4]; Example 4D: process filtrate, temp 50, pH 2.0, agitated, not seeded): 2 h | Hours to convert ([4]; Example 4E: process filtrate, temp 50, pH 1.8, agitated, not seeded): 2 h | Hours to convert ([4]; Example 4F: process filtrate, temp 50, pH 1.8, not agitated, not seeded): 2 h | Transformation of Form 2 to Form 1 ([5]; aqueous suspension, pH between 3.5 and 4, heated to 40° C., 1% by weight of Form 1 seeds added): would not transform to Form 1 | Polymorphic form of the suspension ([5]; pH between 3.5 and 4, determined periodically over the next 3 weeks): always found to be Form 2 | Transformation of Form 2 to Form 1 ([5]; pH between 3.5 and 4, samples taken several months later): had not transformed to Form 1 | Time for Form 2 to transform to Form 1 ([5]; stirred aqueous suspension, below pH 2.5): ≤ 1 h | Polymorphic stability of Form 2 ([5]; stirred aqueous suspension, pH 3, not seeded): stable | Time for Form 2 to convert to Form 1 ([5]; stirred aqueous suspension, pH 3, seeded with Form 1): four | Hours to convert ([6]; Example 2A: Form 2 slurry, 20° C., pH 3.2, not agitated, did not convert after 4-5 days): Did not | Hours to convert ([6]; Example 2B: Form 2 slurry, 40° C., pH 2.0, agitated): 4 h | Hours to convert ([6]; Example 2C: Form 2 slurry, 50° C., pH 2.0, agitated): 1.4 h | Hours to convert ([6]; Example 2D: Form 2 slurry, 50° C., pH 2.9, agitated): 1.8 h | Hours to convert ([6]; Example 2E: Form 2 slurry, 40° C., pH 2.0, agitated): 4 h
